Patent publication US11053204B2, “Pyrimidinyloxy benzene derivatives as herbicides” (FMC Corporation, priority 2015, dated 2021)

How the values were obtained:
Type in all cases: in vivo
[1] = system: pigweed (Amaranthus retroflexus); test: Test C preemergence, plant response rating; settings: Preemergence
[2] = system: barnyardgrass (Echinochloa crus-galli); test: Test C preemergence, plant response rating; settings: Preemergence
[3] = system: blackgrass (Alopecurus myosuroides); test: Test C postemergence, plant response rating; settings: for Plant response rating, Blackgrass: scale 0 to 100; for Blackgrass plant response rating: scale 0 to 100 (0 no effect, 100 complete control)
Procedure, shortened: (§1)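 Both timings shared one formulation, a non-phytotoxic solvent mixture with surfactant, and a greenhouse period of 13 to 15 d. Preemergence used seeded loam/sand or silt loam soil, postemergence used 2 to 18 cm plants; visual ratings ran from 0 (no effect) to 100 (complete control).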

[4] = system: velvetleaf (Abutilon theophrasti); test: Test C postemergence, plant response rating
Procedure, shortened: as §1

[5] = system: morningglory (Ipomoea coccinea); test: Test C postemergence, plant response rating; settings: for Morningglory plant response rating: scale 0 to 100 (0 no effect, 100 complete control)
Procedure, shortened: as §1

[6] = system: oat, wild (wild oat Avena fatua); test: Test C postemergence, plant response rating; settings: for Oat, Wild plant response rating: scale 0 to 100 (0 no effect, 100 complete control)
Procedure, shortened: as §1

[7] = system: barnyardgrass (Echinochloa crus-galli); test: Test C postemergence, plant response rating; settings: for Plant response rating, Barnyardgrass: scale 0 to 100; for Barnyardgrass plant response rating: scale 0 to 100 (0 no effect, 100 complete control)
Procedure, shortened: as §1

[8] = system: wheat (winter wheat, Triticum aestivum); test: Test C postemergence, plant response rating
Procedure, shortened: as §1

[9] = system: lambsquarters (Chenopodium album); test: Test C postemergence, plant response rating; settings: for Lambsquarters plant response rating: scale 0 to 100 (0 no effect, 100 complete control)
Procedure, shortened: as §1

[10] = system: ryegrass, Italian (Italian ryegrass, Lolium multiflorum); test: Test C postemergence, plant response rating; settings: for Ryegrass, Italian plant response rating: scale 0 to 100 (0 no effect, 100 complete control)
Procedure, shortened: as §1

[11] = system: nutsedge, yellow (yellow nutsedge, Cyperus esculentus); test: Test C postemergence, plant response rating; settings: for Nutsedge, Yellow plant response rating: scale 0 to 100 (0 no effect, 100 complete control)
Procedure, shortened: as §1

[12] = system: ragweed (common ragweed, Ambrosia elatior); test: Test C postemergence, plant response rating; settings: for Ragweed plant response rating: scale 0 to 100 (0 no effect, 100 complete control)
Procedure, shortened: as §1

[13] = system: chickweed (common chickweed, Stellaria media); test: Test C postemergence, plant response rating; settings: for Chickweed plant response rating: scale 0 to 100 (0 no effect, 100 complete control)
Procedure, shortened: as §1

[14] = 125 g ai/ha, scale 0 to 100 (0 no effect, 100 complete control)

O=C(CCC(F)(F)F)c1c(Br)cccc1Oc1ncc(Cl)cn1 [Compound 92]
Plant response rating, Pigweed ([1]; 125 g ai/ha, scale of 0 to 100): 100
Plant response rating, Pigweed ([1]; 31 g ai/ha, scale 0 to 100): 100
Plant response rating, Pigweed ([1]; 62 g ai/ha, scale 0 to 100): 100
Plant response rating, Barnyardgrass ([2]; 125 g ai/ha, scale of 0 to 100): 100
Plant response rating, Barnyardgrass ([2]; 16 g ai/ha, scale 0 to 100): 35
Plant response rating, Barnyardgrass ([2]; 31 g ai/ha, scale 0 to 100): 85
Plant response rating, Barnyardgrass ([2]; 62 g ai/ha, scale 0 to 100): 98
Plant response rating, Blackgrass ([3]; 16 g ai/ha): 5
Plant response rating, Blackgrass ([3]; 31 g ai/ha): 10
Blackgrass plant response rating ([3]; 62 g ai/ha): 5
Blackgrass plant response rating ([3]; 125 g ai/ha): 20
Plant response rating, Velvetleaf ([4]; 16 g ai/ha, scale of 0 to 100): 35
Plant response rating, Velvetleaf ([4]; 31 g ai/ha, scale 0 to 100): 50
Velvetleaf plant response rating [4, 14]: 85
Plant response rating, Morningglory ([5]; 16 g ai/ha, scale of 0 to 100): 20
Plant response rating, Morningglory ([5]; 31 g ai/ha, scale 0 to 100): 85
Morningglory plant response rating ([5]; 62 g ai/ha): 65
Morningglory plant response rating ([5]; 125 g ai/ha): 85
Plant response rating, Oat, Wild ([6]; 16 g ai/ha, scale of 0 to 100): 5
Plant response rating, Oat, Wild ([6]; 31 g ai/ha, scale 0 to 100): 5
Oat, Wild plant response rating ([6]; 62 g ai/ha): 5
Oat, Wild plant response rating ([6]; 125 g ai/ha): 5
Plant response rating, Barnyardgrass ([7]; 16 g ai/ha): 10
Plant response rating, Barnyardgrass ([7]; 31 g ai/ha): 10
Barnyardgrass plant response rating ([7]; 62 g ai/ha): 15
Barnyardgrass plant response rating ([7]; 125 g ai/ha): 20
Plant response rating, Wheat ([8]; 16 g ai/ha, scale of 0 to 100): 0
Plant response rating, Wheat ([8]; 31 g ai/ha, scale 0 to 100): 0
Wheat plant response rating [8, 14]: 10
Plant response rating, Lambsquarters ([9]; 16 g ai/ha, scale of 0 to 100): 40
Plant response rating, Lambsquarters ([9]; 31 g ai/ha, scale 0 to 100): 60
Lambsquarters plant response rating ([9]; 62 g ai/ha): 50
Lambsquarters plant response rating ([9]; 125 g ai/ha): 85
Plant response rating, Ryegrass, Italian ([10]; 16 g ai/ha, scale of 0 to 100): 10
Plant response rating, Ryegrass, Italian ([10]; 31 g ai/ha, scale 0 to 100): 15
Ryegrass, Italian plant response rating ([10]; 62 g ai/ha): 10
Ryegrass, Italian plant response rating ([10]; 125 g ai/ha): 30
Plant response rating, Nutsedge, Yellow ([11]; 16 g ai/ha, scale of 0 to 100): 0
Plant response rating, Nutsedge, Yellow ([11]; 31 g ai/ha, scale 0 to 100): 10
Nutsedge, Yellow plant response rating ([11]; 62 g ai/ha): 10
Nutsedge, Yellow plant response rating ([11]; 125 g ai/ha): 20
Plant response rating, Ragweed ([12]; 16 g ai/ha, scale of 0 to 100): 35
Plant response rating, Ragweed ([12]; 31 g ai/ha, scale 0 to 100): 40
Ragweed plant response rating ([12]; 62 g ai/ha): 60
Ragweed plant response rating ([12]; 125 g ai/ha): 70
Plant response rating, Chickweed ([13]; 16 g ai/ha, scale of 0 to 100): 100
Plant response rating, Chickweed ([13]; 31 g ai/ha, scale 0 to 100): 100
Chickweed plant response rating ([13]; 62 g ai/ha): 100
Chickweed plant response rating ([13]; 125 g ai/ha): 100
